Data on 6 molecules can be found in patent US20110100371A1, “ANTI-VIRAL PROPERTIES OF ZOSTERIC ACID AND RELATED MOLECULES” (FLORIDA GULF COAST UNIVERSITY, priority 2007, published 2011).

Molecules are shown by their SMILES. Entries after “also recorded” stand apart in the source; their conditions may differ. Where two headings read alike, the source gives them in different places.

One assay deals with DENV-2 strain NG-2. The assay can be described thus: Focus forming unit (FFU) reduction assay, DENV-2. It is filed as cell-based, dengue virus. The protocol:
(§1) DENV-1 strain HI-1, DENV-2 strain NG-2, DENV-3 strain H-78, and DENV-4 strain H-42 were obtained from R. Tesh at the World Health Organization Arbovirus Reference Laboratory at the University of Texas at Galveston. Viruses were propagated in the […] kidney epithelial cell line, LLCMK-2, a gift of K. Olsen at Colorado State University. LLCMK-2 cells were grown in Dulbecco's modified eagle medium (DMEM) with 10% (v/v) fetal bovine serum (FBS), 2 mM Glutamax, 100 U/ml penicillin G, 100 μg/ml streptomycin and 0.25 μg/ml amphotericin B, at 37° C. with 5% (v/v) CO2.
LLCMK-2 target cells were seeded at a density of 1×10^5 cells in each well of a 6-well plate 24 h prior to infection. Approximately 200 FFU of virus were incubated with or without chemistries in serum-free DMEM for 1 h at rt. Virus/chemistry or virus/control mixtures were allowed to infect confluent target cell monolayers for 1 h at 37° C., with rocking every 15 m, after which time the medium was aspirated and overlaid with fresh DMEM/10% (v/v) FBS containing 0.85% (w/v) Sea-Plaque Agarose (Cambrex Bio Science, Rockland, Me.). Cells with agar overlays were incubated at 4° C. for 20 m to set the agar. Infected cells were then incubated at 37° C. with 5% CO2 for 3 days (DENV-1, 3 and 4) or 5 days (DENV-2). Infected cultures were fixed with 10% formalin overnight at 4° C., permeabilized with 70% (v/v) ethanol for 20 m, and rinsed with PBS prior to immunostaining. Virus foci were detected using supernatant from mouse anti-DENV hybridoma E60 (obtained from M. Diamond at Washington University) followed by horseradish peroxidase-conjugated goat anti-mouse immunoglobulin (Pierce, Rockford, Ill.) and developed using AEC chromogen substrate (Dako, Carpinteria, Calif.). Results were expressed as the average of at least two independent trials with three replicates in each trial.

The subject of the next assay is DENV-1 strain HI-1. The assay can be described thus: Focus forming unit (FFU) reduction assay, DENV-1. The class given is cell-based. Particulars: Dengue virus, DENV1, LLC-MK2; DENV-1 (D-1), LLCMK-2 target cells; read-out: IC50 μM ± sem. As to the method:
as §1
(§2) LLCMK-2 target cells were seeded at a density of 1×10^5 cells in each well of a 6-well plate 24 h prior to infection. Approximately 200 FFU of virus were incubated with or without chemistries in serum-free DMEM for 1 h at rt. […] Virus foci were detected using supernatant from mouse anti-DENV hybridoma E60 (obtained from M. Diamond at Washington University) followed by horseradish peroxidase-conjugated goat anti-mouse immunoglobulin (Pierce, Rockford, Ill.) and developed using AEC chromogen substrate (Dako, Carpinteria, Calif.). Results were expressed as the average of at least two independent trials with three replicates in each trial.

In assay [1] the test system is DENV-2. The assay can be described thus: qRT-PCR virus binding assay. It is filed as cell-based, dengue virus. Particulars: DENV-2 pre-incubated 45 m at 4° C., infection of LLCMK-2 45 m at 4° C. The protocol: Infection of LLCMK-2 target cells in six well plates was performed in duplicate using 10^5 FFU of DENV-2 that had been pre-incubated for 45 m at 4° C. with CF 238 or pooled heterotypic anti-DENY human serum. After a 45 m infection at 4° C., infected monolayers were washed with PBS and harvested with a cell scraper, added to a 1.5 ml microfuge tube containing 350 μl of AR-200 silicone oil (Sigma-Aldrich, St. Louis, Mo.) mixed with 150 μl of silicone fluid (Thomas, Swedesboro, N.J.), and spun at 14,000 rpm in a microfuge for 1 m to separate the unbound virus from the cell-bound virus in the pellets. The tubes were then submerged in liquid nitrogen for 30 s to freeze the contents. The cell pellets with bound virus were recovered by clipping off the bottoms of the tubes with small wire clippers into 15 ml conical tubes. Viral RNA was extracted from the cell pellets using the Qiagen Viral RNA Extraction kit (Qiagen, Chatsworth, Calif.).
Quantitative real time reverse transcription PCR (qRT-PCR) was performed on the extracted RNA using the Quantitect Sybr Green RT-PCR kit (Qiagen inc., Chatsworth, Calif.), following the manufacturer's specifications and amplification protocols, using dengue-specific primers: (Den2F: […], Den2R: […]). […]
A general note: In qPCR the cycle at which signal appears reflects the starting amount.

The test system of the next assay is DENV-3 strain H-78. The assay can be described thus: Focus forming unit (FFU) reduction assay, DENV-3. The class given is cell-based. Particulars: Dengue virus, DENV3, LLC-MK2; DENV-3 (D-3), LLCMK-2 target cells; read-out: IC50 μM ± sem. The protocol: as §1, §2
Assay [2] deals with DENV-2. The assay can be described thus: Pre-binding focus-forming assay. Conditions: DENV-2, chemistry incubated with target cells 1 h at 4° C., rinsed before infection. It is filed as cell-based, dengue virus. As to the method: To determine if the observed inhibitory effect was due to interference caused by modifications to the target cell surface, CF 238 was incubated with the target cells for 1 h at 4° C., the cells were rinsed with PBS, and approximately 200 FFU of DENV-2 was allowed to infect the cells at 4° C. Agarose overlays, incubation, and immunological detection were conducted as described for the focus forming assay.

For assay [3], the system named is DENV-2. The assay can be described thus: Post-entry focus-forming assay. The class given is cell-based, dengue virus. Particulars: DENV-2, chemistry added post-entry 1 hr at 37° C. The protocol: To determine if the observed inhibitory effect was due to interference with post-entry steps in the viral life cycle, approximately 200 FFU of DENV-2 without CF 238 was allowed to bind and enter target cells for 1 h at 37° C. as described for the focus forming assay. Unbound virus was then removed by rinsing with PBS and CF 238 was added to the cells post-entry for 1 hr at 37° C. Cultures were washed again in PBS and agarose overlays, incubation, and immunological detection was conducted as described for the focus forming assay.

In assay [4] the test system is DENV-2. The assay can be described thus: Post-binding focus-forming assay. The class given is cell-based, dengue virus. Particulars: DENV-2 bound at 4° C., then chemistry added 1 h at 4° C. The protocol:
To determine if the observed inhibitory effect was due to interference with interactions that occur pre-binding versus post-binding of virions to the target cells, approximately 200 FFU of DENV-2 was allowed to bind to target LLCMK-2 cells for 1 h at 4° C. to allow binding, but prevent internalization. Unbound virus was washed off with PBS at 4° C., then CF 238 was added and incubated at 4° C. for 1 h. Cultures were washed again in 4° C. PBS and warmed to 37° C. Agarose overlays, incubation, and immunological detection were conducted as described for the focus forming assay.

The subject of the next assay is DENV-1,2,3 and 4. The assay can be described thus: Focus forming unit (FFU) reduction assay, several dengue strains stated together. Conditions: Dengue virus. The class given is cell-based. As to the method: as §1, §2
Another assay has as its system DENV-4 strain H-42. The assay can be described thus: Focus forming unit (FFU) reduction assay, DENV-4. It is filed as cell-based. Particulars: Dengue virus, DENV4, LLC-MK2; DENV-4 (D-4), LLCMK-2 target cells; read-out: IC50 μM ± sem. As to the method:
as §1, §2

[5] abbreviates: Dengue virus, DENV2, LLC-MK2, read-out: IC50 μM ± sem.
Setting [6] is: Dengue virus, DENV2, read-out: maximum inhibition.
Setting [7] is: Dengue virus, DENV2, DENV-2, rounded statement in text, read-out: IC50 (approximate).

Take `CCN(CCOC(=O)/C=C/c1ccc(O)cc1)Cc1cc(Cl)ccc1O` [CF 238]: the inhibition at 84 µM is 86% in the assay with DENV-2 strain NG-2 (Dengue virus, DENV2, AT84); 86 to 100% in the assay on DENV-1,2,3 and 4 (DENV1, AT84, all dengue strains, at 84 μM). Also, the 50% inhibitory concentration (IC50) was 46 ± 4 µM with DENV-2 strain NG-2 (setting [5]); 24 ± 6 µM in the assay on DENV-1 strain HI-1; 14 ± 2 µM in the assay on DENV-3 strain H-78; 14 to 47 µM in the assay on DENV-1,2,3 and 4 (DENV1, range over DENV-1, 3 and 4, read-out: IC50 against the other three DENV types); 47 ± 5 µM with DENV-4 strain H-42. The “activity relative to zosteric acid” value in the assay with DENV-2 strain NG-2 (anti-DENV inhibitory activity compared with the natural product) was ~100 times. Also, the “virus binding/attachment to target cells (qRT-PCR signal)” value with DENV-2 [1] is on record as “did not inhibit virus binding; also recorded: enhances virus:cell binding”. In addition, the “inhibition when target cells treated prior to infection” value in the assay with DENV-2 [2] was “no evidence of inhibition; also recorded: does not inhibit virus infection when pre-incubated with target cells”. Moreover, in the assay with DENV-2 [3], the “inhibition when added after viral entry” value was “no evidence of inhibition”. Further, the “inhibition of virus already bound to target cells” value with DENV-2 [4] is “No inhibition of infection was observed”.

Regarding `CN(CCCNC(=O)c1ccc(O)cc1)CCCNC(=O)c1ccc(O)cc1` [CF 285], the IC50 in the assay on DENV-2 strain NG-2 (setting [5]) was 2520 µM; with DENV-2 strain NG-2 (setting [7]), ~2000 µM. Moreover, in the assay with DENV-2 strain NG-2 (setting [6]), the inhibition at 3000 µM was 63%.

`CCN(CCCN(CC)C(=O)c1cccc(O)c1)C(=O)c1cccc(O)c1` [CF 490]: the half-maximal inhibitory concentration (IC50) with DENV-2 strain NG-2 (setting [5]) is 2380 µM; in the assay on DENV-2 strain NG-2 (setting [7]) it was ~2000 µM. Also, in the assay on DENV-2 strain NG-2 (setting [6]), the inhibition at 3000 µM turned out to be 84%.

In the assay on DENV-2 strain NG-2 (Dengue virus, DENV2), `O=C(O)/C=C/c1ccc(OS(=O)(=O)O)cc1` [ZA, p-sulfoxy-cinnamic acid] displayed an inhibition at 5000 µM of 99%. Further, the IC50 was 2380 µM in the assay on DENV-2 strain NG-2 (setting [5]) and ~2000 µM in the assay on DENV-2 strain NG-2 (setting [7]).

Consider `CN(CCCNC(=O)c1ccc(O)cc1)CCCNC(=O)c1ccc2cc(O)ccc2c1` [CF 290], for which the IC50 in the assay on DENV-2 strain NG-2 (setting [5]) was 294 ± 42 µM. In addition, in the assay with DENV-2 strain NG-2 (setting [6]), the inhibition at 367 µM turned out to be 60%.

For the molecule `O=C(c1ccc(O)cc1)N1CCCN(C(=O)c2ccc3cc(O)ccc3c2)CC1` [CF 296], the “dose-dependent inhibition against DENV-2” value with DENV-2 strain NG-2 (DENV-2, result in words) is recorded as “did not show evidence of clear dose-dependent inhibition”.

By inhibition is commonly meant the percentage by which the read-out fell short of the control. As a reminder, the IC50 is the midpoint of a concentration-inhibition curve.
